Experimental data published in the supplement of paper PMC10307832.

Experiments:
Test in all cases: relative viability (nuclei count vs DMSO), 5 days (fraction); higher = more cells survive
[1] = compound: CN1CCN(c2ccc3nc(-c4c(N)c5c(F)cccc5[nH]c4=O)[nH]c3c2)CC1 [Dovitinib] + O=C(c1cc(Cc2n[nH]c(=O)c3ccccc23)ccc1F)N1CCN(C(=O)C2CC2)CC1 [Olaparib] (partner 8 µM)
Outline: (§1)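 A single step with final 0.05% Triton X-100, 1% formaldehyde and 1 ug/ml Hoechst fixed the cells and stained nuclei 5 days after treatment. Lung cancer cell lines in 1536-well plates had been treated by pin tool the day after seeding with one drug alone or a fixed anchor-drug dose plus five library-drug doses (not always all listed) in √10 steps, and nuclei were counted on 4× images. Relative viability is the ratio of nuclei in treated wells to nuclei in vehicle wells, taken as the median of duplicate plates.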

[2] = compound: CN1CCN(c2ccc3nc(-c4c(N)c5c(F)cccc5[nH]c4=O)[nH]c3c2)CC1 [Dovitinib] + COc1cc2c(Oc3ccc(NC(=O)C4(C(=O)Nc5ccc(F)cc5)CC4)cc3F)ccnc2cc1OCCCN1CCOCC1 [Foretinib] (partner 0.25 µM)
Outline: as §1

[3] = compound: CN1CCN(c2ccc3nc(-c4c(N)c5c(F)cccc5[nH]c4=O)[nH]c3c2)CC1 [Dovitinib] + Cc1nc(NC(=O)N2CCC[C@H]2C(N)=O)sc1-c1ccnc(C(C)(C)C(F)(F)F)c1 [Alpelisib] (partner 2 µM)
Outline: as §1

[4] = compound: CN1CCN(c2ccc3nc(-c4c(N)c5c(F)cccc5[nH]c4=O)[nH]c3c2)CC1 [Dovitinib] + Nc1nc2[nH]cc(CCc3ccc(C(=O)N[C@@H](CCC(=O)O)C(=O)O)cc3)c2c(=O)[nH]1 [Pemetrexed] (partner 0.2 µM)
Outline: as §1

| Cell Line | relative viability ([1]; first compound 0.02 µM) | relative viability ([1]; first compound 0.06325 µM) | relative viability ([1]; first compound 0.2 µM) | relative viability ([1]; first compound 0.6325 µM) | relative viability ([1]; first compound 2 µM) | relative viability ([2]; first compound 0.02 µM) | relative viability ([2]; first compound 0.06325 µM) | relative viability ([2]; first compound 0.2 µM) | relative viability ([2]; first compound 0.6325 µM) | relative viability ([2]; first compound 2 µM) | relative viability ([3]; first compound 0.02 µM) | relative viability ([3]; first compound 0.06325 µM) | relative viability ([3]; first compound 0.2 µM) | relative viability ([3]; first compound 0.6325 µM) | relative viability ([3]; first compound 2 µM) | relative viability ([4]; first compound 0.02 µM) | relative viability ([4]; first compound 0.06325 µM) | relative viability ([4]; first compound 0.2 µM) | relative viability ([4]; first compound 0.6325 µM) | relative viability ([4]; first compound 2 µM) |
| --- | --- | --- | --- | --- | --- | --- | --- | --- | --- | --- | --- | --- | --- | --- | --- | --- | --- | --- | --- | --- |
| H3255 | 0.549 | 0.553 | 0.547 | 0.542 | 0.548 | 0.877 | 0.864 | 0.904 | 0.982 | 0.966 | 0.785 | 0.655 | 0.735 | 0.8 | 0.937 | 0.609 | 0.579 | 0.568 | 0.64 | 0.599 |
| EPLC-272H | 0.815 | 0.893 | 0.793 | 0.681 | 0.57 | 0.634 | 0.841 | 0.732 | 0.747 | 0.687 | 0.9 | 0.815 | 0.97 | 0.946 | 0.888 | 0.408 | 0.35 | 0.274 | 0.398 | 0.372 |
| PC-3 [JPC-3] | 1.16 | 1.16 | 1.14 | 1.13 | 1.15 | 1.08 | 1 | 1.1 | 1.01 | 1.05 | 1.03 | 1.01 | 1.02 | 1.09 | 0.909 | 1.12 | 1.12 | 1.16 | 1.3 | 1.21 |
| NCI-H1793 | 0.901 | 0.928 | 0.786 | 0.873 | 1.02 | 0.775 | 0.532 | 0.684 | 0.604 | 0.745 | 0.928 | 0.601 | 0.88 | 0.831 | 0.623 | 1.27 | 0.735 | 0.96 | 0.916 | 0.943 |
| EKVX | 0.897 | 0.723 | 0.862 | 0.831 | 0.904 | 0.633 | 0.721 | 0.64 | 0.757 | 0.808 | 0.889 | 0.848 | 0.901 | 0.942 | 0.946 | 0.434 | 0.385 | 0.42 | 0.46 | 0.372 |
| ChaGo-K-1 | 0.398 | 0.461 | 0.397 | 0.395 | 0.366 | 0.848 | 0.888 | 0.906 | 0.892 | 0.909 |  |  |  |  |  | 0.263 | 0.25 | 0.251 | 0.258 | 0.26 |
| NCI-H23 | 0.271 | 0.314 | 0.333 | 0.298 | 0.338 | 0.899 | 0.913 | 1.09 | 0.962 | 0.983 | 0.788 | 0.638 | 0.766 | 0.631 | 0.627 | 0.79 | 0.592 | 0.623 | 0.674 | 0.658 |
| EMC-BAC-2 | 0.569 | 0.513 | 0.5 | 0.486 | 0.504 | 1 | 0.982 | 0.991 | 0.948 | 0.599 | 0.784 | 0.772 | 0.701 | 0.687 | 0.736 | 0.555 | 0.442 | 0.487 | 0.445 | 0.459 |
| LOU-NH91 | 0.94 | 0.922 | 0.93 | 0.907 | 0.948 | 0.926 | 0.896 | 0.95 | 0.921 | 1.05 | 0.818 | 0.73 | 0.714 | 0.75 | 0.765 | 0.368 | 0.386 | 0.404 | 0.363 | 0.358 |
| LU99A | 0.256 | 0.279 | 0.275 | 0.276 | 0.281 | 0.714 | 0.782 | 0.79 | 0.812 | 0.932 | 0.492 | 0.561 | 0.43 | 0.461 | 0.559 | 0.169 | 0.304 | 0.165 | 0.217 | 0.18 |
| NCI-H1395 | 0.533 | 0.431 | 0.478 | 0.505 | 0.479 | 1.07 | 1.12 | 0.935 | 0.947 | 1.02 | 1.07 | 0.988 | 1.11 | 1.09 | 1.12 | 0.91 | 0.807 | 0.933 | 0.911 | 1.02 |
| NCI-H460 | 0.372 | 0.488 | 0.403 | 0.426 | 0.411 | 1 | 1.03 | 1.12 | 0.918 | 1.03 | 0.421 | 0.562 | 0.524 | 0.395 | 0.426 | 0.0606 | 0.0581 | 0.0649 | 0.0683 | 0.0626 |
| 201T | 0.803 | 0.842 | 0.809 | 0.865 | 0.815 | 0.946 | 1.01 | 1.07 | 1.09 | 1.06 | 0.979 | 0.975 |  | 1.01 | 0.996 | 0.387 | 0.392 | 0.366 | 0.34 | 0.298 |
| NCI-H1944 | 0.416 | 0.422 | 0.447 | 0.387 | 0.426 | 0.833 | 0.906 | 0.864 | 0.903 | 0.86 | 0.822 | 0.846 | 0.809 | 0.777 | 0.858 | 0.583 | 0.649 | 0.677 | 0.739 | 0.597 |
| NCI-H2405 | 0.858 | 0.849 | 0.944 | 0.815 | 0.903 | 1.02 | 0.977 | 1.05 | 1.04 | 1.11 | 0.819 | 0.744 | 0.791 | 0.77 | 0.965 | 1.05 | 1.02 | 1.25 | 1.08 | 1.11 |
| NCI-H1703 | 0.399 | 0.502 | 0.325 | 0.329 | 0.24 | 0.326 | 0.332 | 0.445 | 0.355 | 0.328 | 0.291 | 0.418 | 0.346 | 0.264 | 0.276 |  |  |  |  |  |
| NCI-H1755 | 0.893 | 0.858 | 0.914 | 0.842 | 0.878 | 0.935 | 0.895 | 1.03 | 0.92 | 0.969 | 0.951 | 0.916 | 0.923 | 0.903 | 0.878 | 0.432 | 0.382 | 0.433 | 0.4 | 0.423 |
